Molecules are shown by their SMILES.

What all share (format): functional, organism-based, Hepacivirus hominis
The subject of assay [1] is Hepatitis C virus. Nature of the assay: Antiviral activity against intrinsic HCV GT1a assessed as reduction in viral replication.
Assay [2] concerns Hepatitis C virus. Description: Antiviral activity against HCV GT1b assessed as reduction in viral replication.
Assay [3] deals with Hepatitis C virus. Nature of the assay: Antiviral activity against HCV GT1b assessed as inhibition of viral replication.
The subject of assay [4] is Hepatitis C virus. Nature of the assay: Antiviral activity against HCV GT1b C316Y assessed as reduction in viral replication.
Assay [5] relates to Hepatitis C virus. Nature of the assay: Antiviral activity against HCV GT1b 316N assessed as reduction in viral replication.
The test system of assay [6] is Hepatitis C virus. Nature of the assay: Antiviral activity against intrinsic HCV GT2a assessed as reduction in viral replication.

As a reminder, the EC50 is the concentration at which the effect is half-maximal. For `CC(C)N(c1cc(C#CC(C)(C)C)sc1C(=O)O)C(=O)[C@H]1CC[C@H](C)CC1`, in the assay with Hepatitis C virus [1], the EC50 was 5.5 nM.

A word on the IC50: it is the concentration needed to halve the response being measured. In the case of `COc1ccc2c(c1)C=C1Cn3c-2c(C2CCCCC2)c2ccc(cc23)C(=O)NS(=O)(=O)N(C)CCCCN(C)C1=O`, the EC50 in the assay on Hepatitis C virus [2] stood at 75 nM. Further, the IC50 in the assay with Hepatitis C virus [3] stood at 26 nM.

For the compound `O=C1N/C(=N\c2nnc(-c3ccc(Cl)cc3)s2)S/C1=C\c1c(Cl)cccc1Cl`, the IC50 with Hepatitis C virus [3] amounted to 5600 nM.

Regarding `O=C1N/C(=N\c2nnc(-c3ccc(F)cc3)s2)S/C1=C\c1c(Cl)cccc1Cl`, the IC50 in the assay on Hepatitis C virus [3] is 19800 nM.

For `CNC(=O)c1c(-c2ccc(F)cc2)oc2cc(N(Cc3ccc(B(O)O)c(F)c3)S(C)(=O)=O)c(C3CC3)cc12`, the figures for the EC50 in the assay on Hepatitis C virus [2] and with Hepatitis C virus [4] were 1.7 nM and 1.9 nM, respectively.

With `CC(C)(C)C#Cc1cc(N(C(=O)[C@H]2CC[C@H](C)CC2)[C@H]2CC[C@H](Oc3cccnc3)CC2)c(C(=O)O)s1`, the EC50 in the assay with Hepatitis C virus [1] is 3.6 nM.

Regarding `CC(C)(C)C#Cc1cc(N(C(=O)[C@H]2CC[C@H](C)CC2)[C@H]2CC[C@H](OC3CCOC3)CC2)c(C(=O)O)s1` (stereo partly specified), the EC50 in the assay on Hepatitis C virus [1] was 8.1 nM.

With `CC(C)(C)C#Cc1cc(N(C(=O)[C@H]2CC[C@H](C)CC2)[C@H]2CC[C@](O)(CO[C@H]3CCOC3)CC2)c(C(=O)O)s1`, the EC50 in the assay on Hepatitis C virus [1] stood at 2.2 nM.

`CC1=CC[C@H](C(=O)N(c2cc(C#CC(C)(C)C)sc2C(=O)O)C(C)C)CC1`: the EC50 in the assay on Hepatitis C virus [1] stood at 2.2 nM.

As to `CNC(=O)c1c(-c2ccc(F)cc2)oc2cc(N(c3cc(Cl)c4c(c3)COB4O)S(C)(=O)=O)c(C3CC3)cc12`, the EC50 with Hepatitis C virus [2] is 2.5 nM; in the assay on Hepatitis C virus [5] it was 2.5 nM; in the assay with Hepatitis C virus [1], 1.3 nM.

Consider `CNC(=O)c1c(-c2ccc(F)cc2)oc2cc(N(C)S(C)(=O)=O)c(-c3cccc(CNS(=O)(=O)c4cccc(OC)c4)c3)cc12`, for which the EC50 in the assay on Hepatitis C virus [2] came out at 1 nM; in the assay with Hepatitis C virus [6], 6 nM.

Consider `CNC(=O)c1c(-c2ccc(F)cc2)oc2cc(N(C)S(C)(=O)=O)c(-c3ccc(OC)c(-c4nc5c(F)cccc5o4)c3)cc12`, for which the EC50 with Hepatitis C virus [2] turned out to be 3.1 nM; in the assay with Hepatitis C virus [4], 9.2 nM.

`CNC(=O)c1c(-c2ccc(F)cc2)oc2cc(N(C)S(C)(=O)=O)c(-c3ccccc3)cc12`: the EC50 in the assay on Hepatitis C virus [2] was found to be 120 nM.

Consider `CNC(=O)c1c(-c2ccc(F)cc2)oc2cc(N(C)S(C)(=O)=O)c(-c3ccc(OC)cc3)cc12`, for which the EC50 in the assay on Hepatitis C virus [2] is 16 nM; with Hepatitis C virus [6], 60 nM.

For the compound `CNC(=O)c1c(-c2ccc(F)cc2)oc2cc(N(CCO)S(C)(=O)=O)c(-c3ccccc3)cc12`, the EC50 in the assay with Hepatitis C virus [2] turned out to be 62 nM.

As to `Cn1c(-c2ncc(Br)cn2)c(C2CCCC2)c2ccc(C(=O)NC3(c4nc5ccc(/C=C/C(=O)O)cc5[nH]4)CCC3)cc21`, the EC50 in the assay on Hepatitis C virus [2] stood at 11 nM. Also, the IC50 with Hepatitis C virus [3] was 50 nM.

On to `CNC(=O)c1c(-c2ccc(F)cc2)oc2cc(N(C)S(C)(=O)=O)c(-c3ccc4c(n3)-c3cc5c(F)cccc5n3CO4)cc12` [MK-8876], for which the EC50 stood at 2.2 nM in the assay on Hepatitis C virus [2], 7.3 nM in the assay on Hepatitis C virus [4] and 2.7 nM with Hepatitis C virus [6].

Regarding `CNC(=O)c1c(-c2ccc(F)cc2)oc2cc(N(CCO)S(C)(=O)=O)c(C3CC3)cc12` [NESBUVIR], the EC50 in the assay with Hepatitis C virus [2] is 18 nM; in the assay with Hepatitis C virus [5] it was 170 nM.

Turning to `CC1=CC[C@H](C(=O)N(c2cc(C#CC(C)(C)C)sc2C(=O)O)[C@H]2CC[C@](O)(CO[C@H]3CCOC3)CC2)CC1` [RADALBUVIR], the half-maximal effective concentration (EC50) was determined as 6 nM with Hepatitis C virus [2] and 2.9 nM with Hepatitis C virus [1].

(Values after ChEMBL document CHEMBL5107986, “Small molecule NS5B RdRp non-nucleoside inhibitors for the treatment of HCV infection: A medicinal chemistry perspective” (Eur J Med Chem, 2022).)
